# Assay results from US20040116523A1, “Use of c4-c10 acids for preventing gram-negative bacterial infections” (priority 2000, published 2004).
# Columns and labels:
# [1] = tested on: Salmonellae; experiment: Bactericidal or bacteriostatic effect on the Salmonellae at neutral pH; format: cell-based, Salmonella
# [2] = tested on: S. typhimurium C52; experiment: Splenic colonization of C57Bl/6 mice infected orally with S. typhimurium C52; format: in vivo
# Experimental: The 5-6-week-old female C57Bl/6 mice used in the context of this experiment originated from the IFFA-CREDO breeding centre (LArbresle, France).
# They were infected orally in the following way. The Salmonella strains were cultured in TCS broth for 18 hours at 37° C. with shaking (200 rpm). This culture was then adjusted to […] (in the stationary growth phase, 1 OD600 =1.5 ×10^9 bacteria/ml), and then the number of viable bacteria was controlled by counting on TCS agar.
# On the day of infection (DO), the drinking-water bottles of the mice were replaced with bottles containing 100 ml of drinking water to which the required number of bacteria had been added.
# After infection for 24 hours ([…]), the bottles containing the contaminated drinking water were replaced with bottles containing uncontaminated drinking water.
# Seven days after infection (D+7), the spleens of the mice infected in this way were removed and homogenized separately in 1 ml of physiological saline containing 0.7% of NaCl.
# The number of viable bacteria per spleen was determined by plating out dilutions of the homogenate, onto TCS agar.
# The effect of the composition of the drinking water on the splenic colonization by Salmonella was estimated using the Student's t test.
# The S. typhimurium strain C52 was used to infect C57Bl/6 mice orally.
# On this figure, the number of viable bacteria is given as the mean (log10) of the values ± the standard deviation. […]
# [3] = tested on: iagA′-lacZ fusion (S. typhi strain Ty267); experiment: β-galactosidase activity of the iagA′-lacZ fusion in favourable LB medium; format: cell-based
# [4] = tested on: iagA′-lacZcat fusion in S. typhi strain Ty267; experiment: "Biotype 100" plate screen for carbon-based substrates that repress the iagA′-lacZcat fusion (β-galactosidase activity); format: cell-based; conditions: "Biotype 100" cupule, amount of substrate not known; favourable LB medium; 36 hours at 37° C.; control cupule without substrate 11 250
# Experimental: (§1) Each of the strains described above was cultured at 37° C. on agar or in TCS broth. The P-galactosidase activity was determined using 4-methyl-umbelliferyl-p-D-galactopyranoside sold by the company Sigma, according to the technique of Klarsfeld et al. (Mol. Mibrobiol., 1994, 13, 585-597). The results, expressed in P-galactosidase units (fluorescence per hour and per OD600), represent the mean of the values obtained in at least three independent experiments. The standard deviations were less than 10% of the values presented.
# A “Biotype 100”® plate sold by the company BioMerieux is composed of 100 microcupules. Each micro-cupule contains a dehydrated carbon-based substrate, with the exception of the first cupule, which is a control without substrate (the amount of dehydrated substrate per cupule is not given by the manufacturer).
# In the context of the present example, these plates were used to search for carbon-based compounds which would block the expression of the invasion genes in Salmonella.
# For this, the S. typhi strain Ty267, which is a derivative of the parental strain Ty2 carrying the iagA′-lacZcat transcriptional fusion (Table I), was cultured in TCS broth for 18 hours at 37° C. with shaking (200 rpm).
# This culture was then diluted 100-fold in favourable LB medium (0.6 ml of culture for 60 ml of favourable LB), and then this suspension was used immediately to seed the 100 cupules of a “Biotype 100”® plate, in a proportion of 450 μl of suspension per cupule.
# After incubation for 36 hours in an incubator at 37° C., the activity of the iagA′-lacZcat fusion in the Ty267 strain was determined for the culture of each cupule.
# By comparing the value of the P-galactosidase activity measured in a cupule containing a carbon-based substrate with that of the control cupule without substrate, it was possible to investigate whether a substrate had no effect on, activated or repressed the expression of the iagA′-lacZcat fusion.
# The S. typhi strain Ty267 (iagA′-lacZ fusion), suspended in the favourable LB medium, was used to seed the “Biotype 100”® plates.
# The β-galactosidase activity expressed by the iagA′-lacZ fusion was determined for the culture in each cupule. With respect to the β-galactosidase activity measured in the control cupule without substrate (11 250 β-galactosidase units), no substrate caused an increase in the expression of the iagA′-lacZ fusion.
# [5] = tested on: tviB′-lacZ fusion (S. typhi strain Ty266); experiment: β-galactosidase activity of the tviB′-lacZ fusion (specificity control); format: cell-based; conditions: 5 mM in favourable LB medium
# Experimental: as §1
# The tviB gene has been characterized in S. typhi, and it encodes a GDP-dehydrogenase involved in the biosynthesis of the Vi antigen, which is the capsular polysaccharide of the typhus bacillus (Waxin et al., Res. Microbiol., 1993, 144, 363-371).
# The results are reported on FIG. 4, in which it is seen that samples were taken every two hours in order to measure the OD600 (corresponding to the open symbols) and in order to determine the β-galactosidase activity (corresponding to the solid symbols).
# [6] = tested on: invF′-lacZ fusion (S. typhi strain Ty272); experiment: β-galactosidase activity of the invF′-lacZ fusion in favourable LB medium; format: cell-based
# Experimental: (§2) The favourable LB medium (high osmolarity and concentration of Ca^2+ions) was defined as being the standard LB medium modified so as to have a final NaCl concentration of 300 mM and a final Ca concentration of 5 mM.
# as §1
# (§3) For this, the S. typhi strains Ty267, Ty272 and Ty277, which carry the iagA′-lacZ, invF′-lacZ and sipB′-lacZ fusions, respectively, (see Table I), were cultured in the favourable LB or unfavourable LB medium.
# (§4) The action of these two compounds on the expression of the iagA′-lacZ, invF′-lacZ and sipB′-lacZ fusions was studied by measuring the β-galactosidase activity expressed by these fusions as a function of the time of culturing (samples removed every two hours).
# [7] = tested on: S. typhi strain Ty2; experiment: Mobility by the U-tube culturing technique; format: cell-based; conditions: U tube supplemented with 5 mM
# Experimental: The mobility of each strain was studied using the U-tube culturing technique (Popoff and Le Minor, Guide pour la preparation des serum anti-Salmonella (Guide for preparing salmonella antisera], 1997). When necessary, the culture media were supplemented with chloramphenicol (Cm) at 15 μg/ml.
# [8] = tested on: sipB′-lacZ fusion (S. typhi strain Ty277); experiment: β-galactosidase activity of the sipB′-lacZ fusion in favourable LB medium; format: cell-based
# Experimental: as §2, §1, §3, §4
# [9] = tested on: iagA′-lacZ fusion (S. typhi strain Ty267); experiment: β-galactosidase activity of the iagA′-lacZ fusion in favourable LB medium; format: cell-based; conditions: 5 mM in favourable LB medium, 6 hours at 37° C.
# Experimental: as §2
# as §1, with “presented. […]” for “presented.”
# The β-galactosidase activity of the iagA′-lacZ fusion was measured after incubation for 6 hours at 37° C. with shaking (200 rpm).
# The S. typhi Ty267 strain (iagA′-lacZ fusion) was seeded into favourable LB medium and into favourable LB medium containing the fatty acid to be tested, in the form of its sodium salt, at the final concentration of 5 mM.
# [10] = tested on: Shigella sonnei; conditions: 0.25 g/l; cited from earlier work
# [11] = tested on: S. typhi; conditions: 0.25 g/l; cited from earlier work
# [12] = tested on: Vibrio cholerae; conditions: 0.25 g/l; cited from earlier work
# [13] = tested on: Gram-positive or Gram-negative bacteria; conditions: in vitro, concentration not given; cited from earlier work
# [14] = concentration greater than or equal to 2.5 mM, favourable LB medium
Structure (SMILES),bactericidal or bacteriostatic effect on the Salmonellae [1],"effect on the level of splenic colonization / protection (in words) ([2]; 50 mM (EDTA 10 mM) in drinking water, 5 × 10^7 bacteria orally)","Number of viable bacteria in the spleen (mean log10) (Table III) ([2]; 50 mM each (EDTA 10 mM) in drinking water pH 7.2-7.3 from two days before infection, 5 × 10^7 bacteria (125 LD50) orally, D+7, distilled water 7.9 ± 0.3)",decrease of the activity of the iagA′-lacZ fusion with respect to favourable LB medium without the substance ([3]; 1 mM in favourable LB medium),"expression of the iagA gene (iagA′-lacZ fusion) [3, 14]",β-galactosidase activity expressed by the iagA′-lacZ fusion in the cupule [4],effect on the expression of the tviB′-lacZ fusion [5],decrease of the activity of the invF′-lacZ fusion with respect to favourable LB medium without the substance ([6]; 1 mM in favourable LB medium),"expression of the invF gene (invF′-lacZ fusion) [6, 14]",mobility of the Ty2 strain [7],decrease of the activity of the sipB′-lacZ fusion with respect to favourable LB medium without the substance ([8]; 1 mM in favourable LB medium),"expression of the sipB gene (sipB′-lacZ fusion) [8, 14]",β-galactosidase activity of the iagA′-lacZ fusion (Table II) ([9]; control 12134 ± 1811),inhibition of the expression of the iagA′-lacZ fusion in S. typhi (in words) ([9]; sodium salt),bactericidal activity in vitro on Shigella sonnei [10],bactericidal activity in vitro on S. typhi [11],bactericidal activity in vitro on Vibrio cholerae [12],bacteriostatic or bactericidal effect on Gram-positive or Gram-negative bacteria [13]
O=C([O-])c1ccccc1.[Na+] [sodium benzoate],none of these compounds has any significant bactericidal or bacteriostatic effect,no effect,7.8 ± 0.8 log10,50%,very strongly represses,245 β-galactosidase units,no significant effect,50%,very strongly represses,same mobility,50%,very strongly represses,190 ± 17 β-galactosidase units,inhibit,,,,
CCCCCCCCCCCC(=O)O [lauric acid],,,,,,,,,,,,,,,bactericidal activity,bactericidal activity,bactericidal activity,very effective
